# Patent publication US5110825A, “Benzofuran derivative” (Shionogi & Co., Ltd., priority 1989, dated 1992)
# pIC50: −log10 of the molar value.
# Molecular target: T1, HMG-CoA reductase (Rattus norvegicus, UniProt P51639)
# T1 sequence (P51639 1-887): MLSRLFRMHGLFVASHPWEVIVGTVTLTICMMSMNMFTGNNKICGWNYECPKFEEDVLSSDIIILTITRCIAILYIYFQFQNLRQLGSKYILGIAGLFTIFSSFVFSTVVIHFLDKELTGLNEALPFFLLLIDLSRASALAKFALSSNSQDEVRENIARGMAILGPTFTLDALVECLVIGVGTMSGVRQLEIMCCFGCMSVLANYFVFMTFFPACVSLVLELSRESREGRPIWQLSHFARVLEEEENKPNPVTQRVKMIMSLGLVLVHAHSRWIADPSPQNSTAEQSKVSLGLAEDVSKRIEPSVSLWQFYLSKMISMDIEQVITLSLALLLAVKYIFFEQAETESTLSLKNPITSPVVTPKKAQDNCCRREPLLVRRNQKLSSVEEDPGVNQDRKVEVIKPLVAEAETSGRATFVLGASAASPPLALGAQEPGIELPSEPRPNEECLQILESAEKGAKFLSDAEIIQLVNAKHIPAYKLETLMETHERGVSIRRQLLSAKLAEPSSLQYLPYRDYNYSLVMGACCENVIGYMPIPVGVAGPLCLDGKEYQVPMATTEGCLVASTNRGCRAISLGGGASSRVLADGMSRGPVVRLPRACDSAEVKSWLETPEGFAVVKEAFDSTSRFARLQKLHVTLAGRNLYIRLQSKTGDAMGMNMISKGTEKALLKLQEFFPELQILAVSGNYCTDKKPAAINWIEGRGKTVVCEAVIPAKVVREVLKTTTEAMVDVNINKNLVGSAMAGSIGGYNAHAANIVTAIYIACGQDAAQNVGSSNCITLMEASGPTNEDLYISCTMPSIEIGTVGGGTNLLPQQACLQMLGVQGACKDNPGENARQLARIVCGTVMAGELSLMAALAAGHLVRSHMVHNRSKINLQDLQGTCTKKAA
# Test: HMG-CoA reductase inhibitory activity (rat liver microsome)
# Type: biochemical, rat (Sprague-Dawley)
# Settings: [3-14C]HMG-CoA, 37° C., 30 minutes
row,Compound,pIC50
1,CC(C)c1oc2cccc(-c3ccc(F)cc3)c2c1/C=C/[C@@H](O)C[C@@H](O)CC(=O)O,6.13
2,Cn1nnnc1C(/C=C/[C@@H](O)C[C@@H](O)CC(=O)O)=C(\c1ccc(F)cc1)c1cc2ccccc2o1 (relative stereo),7.05
3,Cn1nnnc1C(/C=C/[C@@H](O)C[C@@H](O)CC(=O)O)=C(/c1ccc(F)cc1)c1cc2ccccc2o1 (relative stereo),7.05
4,"CC(C)c1c(/C=C/[C@@H](O)C[C@@H](O)CC(=O)O)oc2c(-c3ccc(F)cc3)cccc12 (relative stereo) [Ia-5, Sodium (3R*,5S*)-(E)-7-[3-isopropyl-7-(4-fluorophenylbenzofuran-2-yl]-3,5-dihydroxy-6-heptenate]",6.96
5,"CC(=O)N(C)c1ccc(-c2ccc(F)cc2)c2c(/C=C/[C@@H](O)C[C@@H](O)CC(=O)O)c(C(C)C)oc12 (relative stereo) [Ia-14, Sodium (3R*,5S*)-(E)-7-[7-(N-acetyl-N-methylamino)-4-(4-fluorophenyl)-2-isopropyl-3-yl]-3,5-dihydroxy-6-heptenate]",7.70
6,"CNc1ccc(-c2ccc(F)cc2)c2c(/C=C/[C@@H](O)C[C@@H](O)CC(=O)O)c(C(C)C)oc12 (relative stereo) [Ia-15, Sodium (3R*,5S*)-(E)-7-[4-(4-fluorophenyl)-2-isopropyl-7-methylamino-3-yl]-3,5-dihydroxy-6-heptenate]",7.20

# More lines, in order of rising pIC50, values ahead:
row,pIC50,Compound
1,6.05,"CC(C)c1cccc2c(-c3ccc(F)cc3)c(/C=C/[C@@H](O)C[C@@H](O)CC(=O)O)oc12 (relative stereo) [Ia-2, Sodium (3R*,5S*)-(E)-7-[3-(4-fluorophenyl)-7-isopropylbenzofuran-2-yl]-3,5-dihydroxy-6-heptenate]"
2,6.57,Cc1ccc(C(C)C)c2c(/C=C/[C@@H](O)C[C@@H](O)CC(=O)O)c(-c3ccc(F)cc3)oc12 (relative stereo)
3,6.66,Cc1cc(-c2c(CC[C@@H](O)C[C@@H](O)CC(=O)O)oc3c(C(C)C)cccc23)ccc1F (relative stereo) [Ia-11]
4,7.49,Cc1cc(-c2ccc3occ(C(C)C)c3c2/C=C/[C@@H](O)C[C@@H](O)CC(=O)O)ccc1F (relative stereo)
